Results taken from US10072014B2 (Janssen Pharmaceutica NV, priority 2014, dated 2018).

Molecular target: T1, human mGlu2 receptor (Homo sapiens, UniProt Q14416)
T1 construct: expressed in transfected cells; host or cells: CHO cells
Experiment: [35S]GTPγS binding assay, negative allosteric modulation of mGluR2
Format: biochemical
Conditions: maximal % inhibition relative to the control glutamate response (EC80 glutamate); read-out: GTPγS-hmGluR2 anGT Emax
Description: The compounds provided in the present invention are negative allosteric modulators of mGluR2. These compounds appear to inhibit glutamate responses by binding to an allosteric site other than the glutamate binding site. The response of mGluR2 to a concentration of glutamate is decreased when compounds of Formula (I) are present. Compounds of Formula (I) are expected to have their effect substantially at mGluR2 by virtue of their ability to reduce the function of the receptor. The effects of negative allosteric modulators tested at mGluR2 using the [^35S]GTPγS binding assay method described below and which is suitable for the identification of such compounds, and more particularly the compounds according to Formula (I), are shown in Table 7.
1) [^35S]GTPγS Binding Assay
The [^35S]GTPγS binding assay is a functional membrane-based assay used to study G-protein coupled receptor (GPCR) function whereby incorporation of a non-hydrolysable form of GTP, [^35S]GTPγS (guanosine 5′-triphosphate, labelled with […] ^35S), is measured. The G-protein a subunit catalyzes the exchange of guanosine 5′-diphosphate (GDP) by guanosine triphosphate (GTP) and on activation of the GPCR by an agonist, [^35S]GTPγS, becomes incorporated and cannot be cleaved to continue the exchange cycle (Harper (1998) Current Protocols in Pharmacology 2.6.1-10, John Wiley & Sons, Inc.). […] Here we describe the use of the [^35S]GTPγS binding assay using membranes from cells transfected with the human mGlu2 receptor and adapted from Schaffhauser et al. (Molecular Pharmacology, 2003, […]) for the detection of the negative allosteric modulation (NAM) properties of the compounds of this invention.
CHO-cells were cultured to pre-confluence and stimulated with 5 mM butyrate for 24 h. Cells were then collected by scraping in PBS and cell suspension was centrifuged (10 min at 4000 RPM in benchtop centrifuge). Supernatant was discarded and pellet gently resuspended in 50 mM Tris-HCl, pH 7.4 by mixing with an Ultra Turrax homogenizer. The suspension was centrifuged at 12,400 RPM (Sorvall F14S-6x250Y) for 10 minutes and the supernatant discarded. The pellet was homogenized in 5 mM Tris-HCl, pH 7.4 using an Ultra Turrax homogenizer and centrifuged again (13,000 RPM, 20 min, 4° C.). The final pellet was resuspended in 50 mM Tris-HCl, pH 7.4 and stored at −80° C. in appropriate aliquots before use. Protein concentration was determined by the Bradford method (Bio-Rad, USA) with bovine serum albumin as standard.
[^35S]GTPγS Binding Assay
Measurement of mGluR2 negative allosteric modulatory activity of test compounds was performed as follows. Test compounds and glutamate were diluted in assay buffer containing 10 mM HEPES acid, 10 mM HEPES salt, pH 7.4, 100 mM NaCl, 3 mM MgCl2 and 10 μM GDP. Human mGlu2 receptor-containing membranes were thawed on ice and diluted in assay buffer supplemented with 18 μg/ml saponin. Membranes were pre-incubated with compound together with a predefined (˜EC80) concentration of glutamate (60 μM) for 30 min at 30° C. After addition of [^35S]GTPγS (f.c. 0.1 nM), assay mixtures were shaken briefly and further incubated to allow [^35S]GTPγS incorporation on activation (30 minutes, 30° C.). Final assay mixtures contained 7 μg of membrane protein in 10 mM HEPES acid, 10 mM HEPES salt, pH 7.4, 100 mM NaCl, 3 mM MgCl2, 10 μM GDP and 10 μg/ml saponin. Total reaction volume was 200 μl. Reactions were terminated by rapid filtration through Unifilter-96 GF/B plates (Perkin Elmer, Massachusetts, USA) using a 96-well filtermate universal harvester. Filters were washed 6 times with ice-cold 10 mM NaH2PO4/10 mM Na2HPO4, pH 7.4. Filters were then air-dried, and 30 μl of liquid scintillation cocktail (Microscint-O) was added to each well. Membrane-bound radioactivity was counted in a Topcount.
The concentration-response curves of representative compounds of the present invention were generated using the Lexis software interface (developed at J&J). […]

T1 sequence (Q14416 19-872): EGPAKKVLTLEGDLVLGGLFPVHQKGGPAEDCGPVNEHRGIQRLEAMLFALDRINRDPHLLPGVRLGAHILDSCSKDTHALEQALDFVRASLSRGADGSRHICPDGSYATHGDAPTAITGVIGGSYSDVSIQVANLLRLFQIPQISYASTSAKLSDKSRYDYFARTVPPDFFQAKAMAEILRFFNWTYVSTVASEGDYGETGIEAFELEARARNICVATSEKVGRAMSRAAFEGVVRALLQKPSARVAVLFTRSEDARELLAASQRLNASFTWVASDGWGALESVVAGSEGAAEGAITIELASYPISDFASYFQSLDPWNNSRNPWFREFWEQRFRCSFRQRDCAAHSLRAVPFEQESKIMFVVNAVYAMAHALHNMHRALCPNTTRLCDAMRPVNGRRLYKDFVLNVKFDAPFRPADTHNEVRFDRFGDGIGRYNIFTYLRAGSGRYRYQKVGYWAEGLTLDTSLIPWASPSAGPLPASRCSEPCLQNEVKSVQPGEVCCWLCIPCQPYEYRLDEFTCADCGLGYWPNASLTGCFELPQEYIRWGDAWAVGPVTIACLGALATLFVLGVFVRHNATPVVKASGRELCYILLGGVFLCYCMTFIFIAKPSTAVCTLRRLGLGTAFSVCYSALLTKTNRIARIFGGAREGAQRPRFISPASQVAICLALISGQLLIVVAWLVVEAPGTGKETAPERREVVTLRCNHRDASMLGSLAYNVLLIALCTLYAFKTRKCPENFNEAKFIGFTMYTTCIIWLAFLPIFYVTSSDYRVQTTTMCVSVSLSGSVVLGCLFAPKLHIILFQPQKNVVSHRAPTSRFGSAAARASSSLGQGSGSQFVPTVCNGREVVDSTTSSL

First: C[C@H]1CN(c2ccc(C(F)(F)F)cc2)C(=O)c2c(-c3cnc[nH]3)cnn21 [Compound 12]
Second: COCc1ncc(-c2cnn3c2C(=O)N(c2ccc(C(F)(F)F)cc2)C[C@@H]3C)[nH]1 [Compound 13]
The Emax of the first is lower: 101% for the first, 104% for the second.

Going from `Cc1nc(C2CC2)[nH]c1-c1cnn2c1C(=O)N(c1ccc(C(F)(F)F)cc1)C[C@@H]2C` [Compound 7] to `C[C@H]1CN(c2ccc(C(F)(F)F)cc2)C(=O)c2c(-c3c[nH]c(C4CC4)n3)cnn21` [Compound 2], the Emax falls from 106% to 103%.

Compared with `C[C@H]1CN(c2ccc(Cl)c(Cl)c2)C(=O)c2c(-c3c[nH]c(-c4ccc(N)nc4)n3)cnn21` [Compound 19], `C[C@H]1CN(c2ccc(C(F)(F)F)c(Cl)c2)C(=O)c2c(-c3nc(-c4ccc(N)nc4)[nH]c3C#N)cnn21` [Compound 45] is lower in Emax: 108% for the first, 106% for the second.

Going from `C[C@H]1CN(c2ccc(C(F)(F)F)c(Cl)c2)C(=O)c2c(-c3c[nH]c(C#N)n3)cnn21` [Compound 29] to `Cc1nc(-c2cnn3c2C(=O)N(c2ccc(C(F)(F)F)c(C#N)c2)C[C@@H]3C)c[nH]1` [Compound 23], the Emax falls from 111% to 104%.

Compared with `C[C@H]1CN(c2ccc(C(F)(F)F)c(Cl)c2)C(=O)c2c(-c3c[nH]c(-c4cnccn4)n3)cnn21` [Compound 43], `C[C@H]1CN(c2ccc(C(F)(F)F)cc2)C(=O)c2c(-c3c[nH]c(-c4cnccn4)n3)cnn21` [Compound 44] is lower in Emax: 106% for the first, 103% for the second.

Going from `C[C@H]1CN(c2ccc(C(F)(F)F)c(Cl)c2)C(=O)c2c(-c3c[nH]c(C(=O)N(C)C)n3)cnn21` [Compound 36] to `CNC(=O)c1nc(-c2cnn3c2C(=O)N(c2ccc(C(F)(F)F)c(Cl)c2)C[C@@H]3C)c[nH]1` [Compound 35], the Emax rises from 106% to 111%.

First: C[C@H]1CN(c2ccc(C(F)(F)F)cc2)C(=O)c2c(-c3cnc(C(F)(F)F)[nH]3)cnn21 [Compound 8]
Second: Cc1ncc(-c2cnn3c2C(=O)N(c2ccc(C(F)(F)F)c(CF)c2)C[C@@H]3C)[nH]1 [Compound 24]
The Emax of the first is higher: 108% for the first, 106% for the second.

`Cc1[nH]c(-c2cccnc2)nc1-c1cnn2c1C(=O)N(c1ccc(C(F)(F)F)cc1)C[C@@H]2C` [Compound 14] showed an Emax of 103%.

Same assay, conditions: membranes from CHO cells transfected with human mGlu2 receptor; glutamate 60 μM (~EC80); read-out: GTPγS-hmGluR2 anGT pIC50 (converted)

`C[C@H]1CN(c2ccc(C(F)(F)F)cc2)C(=O)c2c(-c3cnc[nH]3)cnn21` [Compound 12] and `COCc1ncc(-c2cnn3c2C(=O)N(c2ccc(C(F)(F)F)cc2)C[C@@H]3C)[nH]1` [Compound 13] are within 1.5-fold of each other in IC50: 0.0708 µM for the first, 0.0832 µM for the second.

Compared with `Cc1nc(C2CC2)[nH]c1-c1cnn2c1C(=O)N(c1ccc(C(F)(F)F)cc1)C[C@@H]2C` [Compound 7], `C[C@H]1CN(c2ccc(C(F)(F)F)cc2)C(=O)c2c(-c3c[nH]c(C4CC4)n3)cnn21` [Compound 2] is 1.6-fold lower in IC50: 0.0316 µM for the first, 0.02 µM for the second.

`C[C@H]1CN(c2ccc(Cl)c(Cl)c2)C(=O)c2c(-c3c[nH]c(-c4ccc(N)nc4)n3)cnn21` [Compound 19] and `C[C@H]1CN(c2ccc(C(F)(F)F)c(Cl)c2)C(=O)c2c(-c3nc(-c4ccc(N)nc4)[nH]c3C#N)cnn21` [Compound 45] are within 1.5-fold of each other in IC50: 0.0501 µM for the first, 0.0347 µM for the second.

Compared with `C[C@H]1CN(c2ccc(C(F)(F)F)c(Cl)c2)C(=O)c2c(-c3c[nH]c(C#N)n3)cnn21` [Compound 29], `Cc1nc(-c2cnn3c2C(=O)N(c2ccc(C(F)(F)F)c(C#N)c2)C[C@@H]3C)c[nH]1` [Compound 23] is 17-fold higher in IC50: 0.00389 µM for the first, 0.0646 µM for the second.

Compared with `C[C@H]1CN(c2ccc(C(F)(F)F)c(Cl)c2)C(=O)c2c(-c3c[nH]c(-c4cnccn4)n3)cnn21` [Compound 43], `C[C@H]1CN(c2ccc(C(F)(F)F)cc2)C(=O)c2c(-c3c[nH]c(-c4cnccn4)n3)cnn21` [Compound 44] is 7.9-fold higher in IC50: 0.0049 µM for the first, 0.0389 µM for the second.

Going from `C[C@H]1CN(c2ccc(C(F)(F)F)c(Cl)c2)C(=O)c2c(-c3c[nH]c(C(=O)N(C)C)n3)cnn21` [Compound 36] to `CNC(=O)c1nc(-c2cnn3c2C(=O)N(c2ccc(C(F)(F)F)c(Cl)c2)C[C@@H]3C)c[nH]1` [Compound 35], the IC50 falls from 0.11 µM to 0.038 µM (2.9-fold).

Going from `C[C@H]1CN(c2ccc(C(F)(F)F)cc2)C(=O)c2c(-c3cnc(C(F)(F)F)[nH]3)cnn21` [Compound 8] to `Cc1ncc(-c2cnn3c2C(=O)N(c2ccc(C(F)(F)F)c(CF)c2)C[C@@H]3C)[nH]1` [Compound 24], the IC50 falls from 0.0331 µM to 0.0158 µM (2.1-fold).

With `Cc1[nH]c(-c2cccnc2)nc1-c1cnn2c1C(=O)N(c1ccc(C(F)(F)F)cc1)C[C@@H]2C` [Compound 14] the IC50 was 0.11 µM.

Test system: rats
Experiment: Reversal of the effect of the mGluR2 PAM JNJ-42153605-induced inhibition of scopolamine-induced hyperlocomotion
Format: in vivo
Conditions: Rattus norvegicus, PO, criterion for reversal: total distance >1500 cm, read-out: ED50 SCOP JNJ-42153605
Experimental: 2) Reversal of the Effect of the mGluR2 PAM JNJ-42153605-induced Inhibition of Scopolamine-induced Hyperlocomotion Apparatus
Motor activity was measured in microprocessor-based motor activity arenas (closed gray PVC cylinders with a height of 39 cm and a diameter of 31 cm). Each arena was placed on an infrared LED (8×8 LEDs) lit box (white PVC squared box; 40×40 cm^2; height 12.5 cm. An infrared-sensitive tube camera and a white light source were mounted to the ceiling above the observation chamber to track the animal. The total distance traveled (cm) was recorded and analyzed using the Noldus Ethovision XT Video Tracking System (Version 7.0.418; Noldus, Wageningen, The Netherlands). The intensity of the light within the activity cages (measured in the centre at the level of the floor) ranged between 4 and 8 LUX.
The rats were pretreated with test compound or vehicle at 60 min before the start of the activity recordings and placed into individual cages. The rats were challenged with JNJ-42153605 (3-(cyclopropylmethyl)-7-(4-phenylpiperidin-1-yl)-8-(trifluoromethyl)-[1,2,4]triazolo[4,3-a]pyridine; WO2010/130424; Cid et al. J. Med. Chem. 2012, 55, 8770-8789) (20 mg/kg, i.v.) 30 min before the start of the activity recording combined with scopolamine (0.16 mg/kg, i.v.) just before the start of the activity measurements. Immediately after the injection of scopolamine, the rats were placed into the activity monitors and total distance traveled over the first 30 min was measured.
Solvent-pretreated Control Rats.
Animals receiving the combination of JNJ-42153605 and scopolamine (n=433) almost always traveled a distance of less than 1500 cm (<1500 cm) (only 2.5% of the control rats traveled a distance of more than 1500 cm (>1500 cm)). On the other hand, animals challenged with scopolamine alone (n=215) always traveled a total distance of more than 1500 cm (>1500 cm) and almost always (in 95.8% of the rats) a distance of more than 4400 cm (>4400 cm). […] For reversal of the inhibitory effect of JNJ-42153605 on the scopolamine-induced hyperlocomotion, the following all-or-none criteria were adopted: (1) reversal: total distance>1500 cm.

With `Cc1nc(C2CC2)[nH]c1-c1cnn2c1C(=O)N(c1ccc(C(F)(F)F)cc1)C[C@@H]2C` [Compound 7] the ED50 was over 0.63 mg/kg.

Test system: not given
Experiment: not given
Conditions: not given

Compared with `C[C@H]1CN(c2ccc(C(F)(F)F)cc2)C(=O)c2c(-c3cnc[nH]3)cnn21` [Compound 12], `Cc1[nH]c(-c2cccnc2)nc1-c1cnn2c1C(=O)N(c1ccc(C(F)(F)F)cc1)C[C@@H]2C` [Compound 14] is higher in melting point: 176.92 °C for the first, 244.74 °C for the second.

First: Cc1nc(-c2cnn3c2C(=O)N(c2ccc(C(F)(F)F)c(C#N)c2)C[C@@H]3C)c[nH]1 [Compound 23]
Second: Cc1ncc(-c2cnn3c2C(=O)N(c2ccc(C(F)(F)F)c(CF)c2)C[C@@H]3C)[nH]1 [Compound 24]
The melting point of the first is higher: 226.81 °C for the first, 174.28 °C for the second.

With `C[C@H]1CN(c2ccc(C(F)(F)F)c(Cl)c2)C(=O)c2c(-c3c[nH]c(-c4cnccn4)n3)cnn21` [Compound 43] the melting point was 227.75 °C.
